Reference: ChEMBL document CHEMBL1135277, “Beta-carbolines as specific inhibitors of cyclin-dependent kinases” (Bioorg Med Chem Lett, 2002)

Columns and labels:
[1] = biological target: Cyclin-dependent kinase 2 (Homo sapiens) (UniProt P24941); test: Percentage inhibition against cyclin dependent kinase 2 (CDK 2) at a concentration of 50 uM
[2] = Inhibition of Mitogen-activated protein kinase
[3] = biological target: Tyrosine-protein kinase Lyn (Homo sapiens, UniProt P07948); test: Inhibition of Lyn tyrosine kinase
Tyrosine-protein kinase Lyn, sequence (P07948 whole entry): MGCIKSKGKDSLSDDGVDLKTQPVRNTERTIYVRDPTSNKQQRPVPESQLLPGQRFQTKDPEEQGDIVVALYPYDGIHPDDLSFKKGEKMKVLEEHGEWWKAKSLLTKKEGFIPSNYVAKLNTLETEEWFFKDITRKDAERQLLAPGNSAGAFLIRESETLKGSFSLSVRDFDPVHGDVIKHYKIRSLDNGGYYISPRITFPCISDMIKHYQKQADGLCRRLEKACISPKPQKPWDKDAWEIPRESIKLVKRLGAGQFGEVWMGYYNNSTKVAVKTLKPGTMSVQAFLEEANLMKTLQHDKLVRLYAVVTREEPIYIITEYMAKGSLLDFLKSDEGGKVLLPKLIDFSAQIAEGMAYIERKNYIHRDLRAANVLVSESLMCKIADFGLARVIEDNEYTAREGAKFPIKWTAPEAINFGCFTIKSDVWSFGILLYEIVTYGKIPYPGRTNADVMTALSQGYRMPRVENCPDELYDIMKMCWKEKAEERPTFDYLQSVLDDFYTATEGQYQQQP

[4] = biological target: Cyclin-dependent kinase 2/cyclin A (Homo sapiens, UniProt P24941); test: Inhibition of Cyclin-dependent kinase 2-cyclin A; format: protein-complex assay
[5] = biological target: Tyrosine-protein kinase Lck (Homo sapiens, UniProt P06239); test: Inhibition of p56 Lck tyrosine kinase
Tyrosine-protein kinase Lck, sequence (P06239 whole entry): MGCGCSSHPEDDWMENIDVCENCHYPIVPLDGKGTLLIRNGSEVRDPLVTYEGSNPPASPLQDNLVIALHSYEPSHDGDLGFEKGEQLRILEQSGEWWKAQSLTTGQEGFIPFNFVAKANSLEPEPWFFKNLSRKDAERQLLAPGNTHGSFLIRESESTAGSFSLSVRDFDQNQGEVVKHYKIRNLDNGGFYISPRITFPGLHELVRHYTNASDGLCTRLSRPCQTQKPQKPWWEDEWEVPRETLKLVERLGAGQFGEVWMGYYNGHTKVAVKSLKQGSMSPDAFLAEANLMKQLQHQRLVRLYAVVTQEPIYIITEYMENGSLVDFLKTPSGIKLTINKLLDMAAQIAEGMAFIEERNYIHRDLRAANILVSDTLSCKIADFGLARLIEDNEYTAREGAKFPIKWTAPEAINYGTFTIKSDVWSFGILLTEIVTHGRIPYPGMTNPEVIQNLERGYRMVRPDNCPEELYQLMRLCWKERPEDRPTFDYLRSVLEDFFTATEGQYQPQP

[6] = biological target: Tyrosine-protein kinase Fyn (Homo sapiens, UniProt P06241); test: Inhibition of Fyn kinase
Tyrosine-protein kinase Fyn, sequence (P06241 whole entry): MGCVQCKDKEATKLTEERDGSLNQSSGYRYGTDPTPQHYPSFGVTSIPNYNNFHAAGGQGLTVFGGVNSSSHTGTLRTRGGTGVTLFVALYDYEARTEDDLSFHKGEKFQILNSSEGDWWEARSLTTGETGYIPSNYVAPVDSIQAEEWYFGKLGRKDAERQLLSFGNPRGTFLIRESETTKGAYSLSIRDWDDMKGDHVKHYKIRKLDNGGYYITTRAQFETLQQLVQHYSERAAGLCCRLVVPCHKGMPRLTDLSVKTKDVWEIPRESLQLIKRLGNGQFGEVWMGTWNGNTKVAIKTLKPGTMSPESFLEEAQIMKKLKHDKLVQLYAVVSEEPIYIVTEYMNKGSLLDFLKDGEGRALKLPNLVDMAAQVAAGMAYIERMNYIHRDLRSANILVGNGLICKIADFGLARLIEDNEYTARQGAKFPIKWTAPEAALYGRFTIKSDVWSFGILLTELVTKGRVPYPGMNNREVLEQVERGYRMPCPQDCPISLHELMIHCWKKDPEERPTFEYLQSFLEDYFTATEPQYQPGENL

[7] = biological target: Protein kinase C (PKC); test: Inhibition of protein kinase C; format: protein assay
[8] = biological target: Cyclin-dependent kinase 1/cyclin B (Homo sapiens, UniProt P06493); test: Inhibition of Cell division cycle 2 (CDK1)-cyclin B; format: protein-complex assay
[9] = biological target: Cyclin-dependent kinase 5/CDK5 activator 1 (Homo sapiens, UniProt Q00535); test: Inhibition of Cyclin-dependent kinase 5-p35nck5a; format: protein-complex assay
Cyclin-dependent kinase 5/CDK5 activator 1, sequence (Q00535 whole entry): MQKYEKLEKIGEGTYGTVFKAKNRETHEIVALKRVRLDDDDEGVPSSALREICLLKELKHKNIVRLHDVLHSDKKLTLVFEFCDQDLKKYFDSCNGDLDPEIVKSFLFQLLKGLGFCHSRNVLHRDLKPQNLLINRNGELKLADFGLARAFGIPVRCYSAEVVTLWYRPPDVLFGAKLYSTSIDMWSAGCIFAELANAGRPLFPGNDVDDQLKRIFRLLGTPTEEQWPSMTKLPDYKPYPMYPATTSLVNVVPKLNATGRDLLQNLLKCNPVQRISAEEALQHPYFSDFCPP
Cyclin-dependent kinase 5/CDK5 activator 1, sequence (Q15078 whole entry, further chain): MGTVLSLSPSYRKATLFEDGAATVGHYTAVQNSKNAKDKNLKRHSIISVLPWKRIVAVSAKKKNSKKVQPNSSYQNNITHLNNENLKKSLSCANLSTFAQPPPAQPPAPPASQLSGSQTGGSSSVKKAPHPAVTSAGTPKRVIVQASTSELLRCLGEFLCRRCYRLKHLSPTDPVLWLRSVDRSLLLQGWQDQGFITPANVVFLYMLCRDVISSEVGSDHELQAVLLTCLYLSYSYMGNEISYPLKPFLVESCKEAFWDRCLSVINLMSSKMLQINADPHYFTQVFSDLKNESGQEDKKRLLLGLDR

Row | SMILES | inhibition [1] | also measured
1 | Fc1ccc(-c2[nH]ccc3c4ccccc4nc2-3)c(F)c1 | 56% | 
2 | CC(C)(C)c1[nH]ccc2c3ccccc3nc1-2 | 50% | 
3 | c1ccc(-c2nccc3c2[nH]c2ccccc23)cc1 | 13% | 
4 | CC(=O)OCCOc1ccc2c(c1)[nH]c1c(C)nccc12 | 23% | 
5 | Cc1nccc2c1[nH]c1cccc(C)c12 | 30% | 
6 | Cc1ccc2[nH]c3c(C)nccc3c2c1 | 15% | 
7 | Cc1nccc2c1[nH]c1ccc(F)cc12 | 46% | 
8 | CCCc1nccc2c1[nH]c1cc(F)ccc12 | 60% | 
9 | Fc1ccccc1-c1[nH]ccc2c3ccccc3nc1-2 | 64% | 
10 | Brc1ccccc1-c1[nH]ccc2c3ccccc3nc1-2 | 10% | 
11 | Fc1ccc2c(c1)[nH]c1c(-c3ccccc3)nccc12 | 57% | 
12 | CCOC(COc1ccc2c(c1)[nH]c1c(C)nccc12)OCC | 1% | 
13 | COc1ccc2c(c1)[nH]c1c(C)nccc12 [HARMINE] | 62% | IC50 [2]: > 250 µM; IC50 [3]: > 250 µM; IC50 [4]: 35 µM; IC50 [5]: > 250 µM; IC50 [6]: > 250 µM; IC50 [7]: > 250 µM
14 | COc1ccc2[nH]c3c(C(=O)O)nccc3c2c1 | 12% | 
15 | Clc1ccccc1-c1[nH]ccc2c3ccccc3nc1-2 | 69% | 
16 | Cc1nccc2c1[nH]c1ccccc12 | 47% | 
17 | COc1cccc(-c2[nH]ccc3c4ccccc4nc2-3)c1 | 5% | 
18 | Cc1[nH]cnc1-c1[nH]ccc2c3ccc(F)cc3nc1-2 | 51% | 
19 | O=[N+]([O-])c1cccc(-c2[nH]ccc3c4ccccc4nc2-3)c1 | 19% | 
20 | COc1ccc(-c2nccc3c2[nH]c2ccccc23)cc1 | 6% | 
21 | CCCNC(=O)Oc1ccc2c(c1)[nH]c1c(C)nccc12 | 61% | 

Row | SMILES | inhibition [1] | also measured
22 | Cc1[nH]ccc2c1[nH]c1cc(=O)ccc12 | 69% | 
23 | O=[N+]([O-])c1ccc(Cl)c(-c2[nH]ccc3c4ccccc4nc2-3)c1 | 70% | IC50 [3]: > 250 µM; IC50 [4]: 22 µM; IC50 [8]: 45 µM; IC50 [6]: > 250 µM; IC50 [9]: > 1200 µM; IC50 [7]: > 250 µM
24 | Fc1ccc(-c2nccc3c2[nH]c2ccccc23)cc1 | 20% | 
25 | Cc1nccc2c1[nH]c1cc(Oc3ncc(C(F)(F)F)cc3Cl)ccc12 | 10% | 
26 | CCc1nccc2c1[nH]c1cc(F)ccc12 | 54% | 
27 | Fc1cccc(-c2nccc3c2[nH]c2ccccc23)c1 | 6% | 
28 | Cc1nccc2c1[nH]c1cccc(F)c12 | 55% | 
29 | Cc1nccc2c1[nH]c1cc(OC(=O)NC3CCCCC3)ccc12 | 53% | 
30 | Cc1ccc(-c2[nH]ccc3c4ccccc4nc2-3)c(C)c1 | 5% | 
31 | Cc1nccc2c1[nH]c1cc(OCC(=O)OCc3ccccc3)ccc12 | 57% | 
32 | FC(F)(F)c1[nH]ccc2c3ccccc3nc1-2 | 39% | 
33 | Cc1nccc2c1[nH]c1ccc(OC(=O)c3ccccc3)cc12 | 2% | 
34 | N#Cc1cccc(-c2nccc3c2[nH]c2ccccc23)c1 | 31% | 
35 | Clc1cccc(-c2nccc3c2[nH]c2ccccc23)c1 | 32% | 
36 | CC1=NCCc2c1[nH]c1cc(O)ccc21 | 13% | 
37 | Cc1nccc2c1[nH]c1cc(OCCO)ccc12 | 4% | 
38 | Cc1ccc2c(c1)[nH]c1c(-c3ccccc3F)nccc12 | 36% | 
39 | COc1ccc2[nH]c3c(C)nccc3c2c1 | 2% | 
40 | c1ccc2c(c1)[nH]c1c(-c3c[nH]cn3)nccc12 | 30% | 
41 | Cc1nccc2c1[nH]c1cc(OCCOC(=O)c3ccccc3)ccc12 | 13% | 
42 | N#Cc1ccccc1-c1[nH]ccc2c3ccccc3nc1-2 | 8% | 

Row | SMILES | inhibition [1] | also measured
43 | Clc1ccc(-c2nccc3c2[nH]c2ccccc23)cc1 | 48% | 
44 | Cc1nccc2c1[nH]c1cc(F)ccc12 | 65% | IC50 [2]: > 250 µM; IC50 [3]: > 250 µM; IC50 [4]: 30 µM; IC50 [5]: > 250 µM; IC50 [8]: 42 µM; IC50 [6]: > 250 µM; IC50 [7]: > 250 µM
45 | Cc1nccc2c1[nH]c1cc(OCCN3C(=O)c4ccccc4C3=O)ccc12 | 8% | 
46 | Cc1[nH]cnc1-c1nccc2c1[nH]c1ccccc12 | 89% | IC50 [2]: > 250 µM; IC50 [3]: > 250 µM; IC50 [4]: 6 µM; IC50 [8]: 25 µM; IC50 [6]: > 250 µM; IC50 [7]: > 250 µM
47 | COC(=O)Cc1nccc2c1[nH]c1ccccc12 | 11% | 
48 | O=[N+]([O-])c1ccc(-c2[nH]ccc3c4ccccc4nc2-3)cc1 | 31% | 
49 | Cc1ccc2c(c1)[nH]c1c(C)nccc12 | 23% | 
50 | COc1ccc2c3c([nH]c2c1)C(C)=NCC3 | 10% | 
51 | Cc1nccc2c1[nH]c1cc(OCCC3(C)OCC(C)(C)CO3)ccc12 | 27% | 
52 | Cc1nccc2c1[nH]c1cc(OCC(N)=O)ccc12 | 15% | 
53 | CCOc1ccc2c(c1)[nH]c1c(C)nccc12 | 43% | 
54 | Fc1ccc2c(c1)[nH]c1c(-c3ccccc3F)nccc12 | 55% | 
55 | CC(C)c1nccc2c1[nH]c1ccccc12 | 44% | 
56 | c1ccc2c(c1)[nH]c1cnccc12 | 37% | 
57 | N#Cc1ccc(-c2nccc3c2[nH]c2ccccc23)cc1 | 29% | 
58 | O=[N+]([O-])c1ccccc1-c1[nH]ccc2c3ccccc3nc1-2 | 43% | 
59 | CCCCOc1ccc2c(c1)[nH]c1c(C)nccc12 | 50% | 
60 | CCCc1nccc2c1[nH]c1ccccc12 | 43% | 
61 | O=[N+]([O-])c1ccc(-c2[nH]ccc3c4ccccc4nc2-3)cc1Cl | 4% | 
62 | CCCc1ncc(N)c2c1[nH]c1ccccc12 | 22% | 
